{"source": "patent US20070148240A1", "about": "“Oral formulation containing itraconazole and methods for manufacturing and using the same” (priority 2005, published 2007)", "origin": "cited, not measured here", "key": {"[1]": {"assay": "not given", "remark": "listed apart in the source"}}, "data": [{"molecule": "CCC(C)n1ncn(-c2ccc(N3CCN(c4ccc(OC[C@H]5CO[C@](Cn6cncn6)(c6ccc(Cl)cc6Cl)O5)cc4)CC3)cc2)c1=O", "note": "(mixture of isomers) [itraconazole, (±)-cis-4-[4-[4-[4-[[2-(2,4-dichlorophenyl)-2-(1H-1,2,4-triazol-1-ylmethyl)-1,3-dioxolan-4-yl]methoxy]phenyl]-1-piperazinyl]phenyl]-2,4-dihydro-2-(1-methylpropyl)-3H-1,2,4-triazol-3-one]", "values": [{"measurement": "solubility in acids", "setting": "in acids such as hydrochloric acid, acetic acid, phosphoric acid and methylsulfonic acid", "result": "easily soluble"}, {"measurement": "solubility in ethanol", "setting": "in ethanol", "result": "low"}, {"measurement": "solubility in methylene chloride", "setting": "in methylene chloride", "result": "easily soluble"}, {"measurement": "solubility in water", "setting": "in water", "result": "less than 1 μg/ml"}, {"measurement": "binding rate with plasma proteins", "setting": "plasma proteins", "result": 99.8, "unit": "%"}, {"measurement": "time to reach peak concentration in plasma", "setting": "[1]; after being taken by patients", "result": "3 to 4", "unit": "h"}, {"measurement": "concentration in blood relative to that in plasma", "setting": "[1]; human, in vivo", "result": "about 60%"}, {"measurement": "itraconazole in original form excreted in feces", "setting": "[1]; human, in vivo", "result": "3-18%"}, {"measurement": "itraconazole in original form secreted in urine", "setting": "[1]; human, in vivo", "result": "≤ 0.03", "unit": "%"}, {"measurement": "plasma half life", "setting": "[1]; human, in vivo", "result": "24 to 36", "unit": "h"}, {"measurement": "itraconazole metabolites secreted in urine", "setting": "[1]; within a week after uptake of the drug", "result": "About 35%"}]}, {"molecule": "hydroxy-itraconazole", "values": [{"measurement": "antifungal activity in vitro", "setting": "fungi", "result": "has been demonstrated in vitro to have antifungal activity"}]}]}
